Measured values: BindingDB's records for doi:10.7270/Q2DF6PMF (Nmmlsc, 2007)

Biological target: T1, N-formyl peptide receptor 2 (Homo sapiens, UniProt P25090)
T1 sequence (P25090 whole entry): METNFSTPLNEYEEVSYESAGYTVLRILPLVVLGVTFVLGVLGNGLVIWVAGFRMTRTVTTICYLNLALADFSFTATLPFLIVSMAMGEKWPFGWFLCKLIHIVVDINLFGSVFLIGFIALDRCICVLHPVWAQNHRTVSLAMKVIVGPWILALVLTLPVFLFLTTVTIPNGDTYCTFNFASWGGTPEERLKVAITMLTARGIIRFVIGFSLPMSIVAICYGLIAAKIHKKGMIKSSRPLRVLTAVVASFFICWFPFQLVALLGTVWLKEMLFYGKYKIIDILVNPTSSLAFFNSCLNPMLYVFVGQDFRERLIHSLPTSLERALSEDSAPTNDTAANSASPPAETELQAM
Test: FPRL1 binding inhibitor potency, dose response, cell-based, FPR counter-screen, fluorescent ligand (AID 520)

Row | SMILES | IC50 [µM] | IC50 (inactive by the depositor's call) [µM] | Ki [µM]
1 | CCOC(=O)c1c(NC(=O)c2cc(C3CC3)on2)sc2c1CCCC2 [2-[(5-cyclopropylisoxazole-3-carbonyl)amino]-4,5,6,7-tetrahydrobenzothiophene-3-carboxylic acid ethyl ester] | > 66.7 |  | 
2 | COc1cccc(-c2nc(CS(=O)(=O)CC(=O)NCCC(C)C)c(C)o2)c1 [2-[[2-(3-methoxyphenyl)-5-methyl-1,3-oxazol-4-yl]methylsulfonyl]-N-(3-methylbutyl)acetamide] | > 66.7 |  | 
3 | CCCNC(=O)CS(=O)(=O)Cc1nc(-c2cccc(OC)c2)oc1C [2-[[2-(3-methoxyphenyl)-5-methyl-1,3-oxazol-4-yl]methylsulfonyl]-N-propyl-ethanamide] | > 66.7 |  | 
4 | COc1ccc(Cl)cc1-n1c(=S)sc2c(O)nc(SCC(=O)NCC3CCCO3)nc21 (configuration not stated) [2-[[3-(5-chloranyl-2-methoxy-phenyl)-7-oxidanylidene-2-sulfanylidene-4H-[1,3]thiazolo[4,5-d]pyrimidin-5-yl]sulfanyl]-N-(oxolan-2-ylmethyl)ethanamide] | > 66.7 |  | 
5 | O=C(NCC1CCCO1)c1ccc(NC(=O)C2CCCCC2C(=O)O)cc1 (configuration not stated) [2-[[4-(oxolan-2-ylmethylcarbamoyl)phenyl]carbamoyl]cyclohexane-1-carboxylic acid] | > 66.7 |  | 
6 | CCOC(=O)CSc1nnc(CNC(=O)c2cc(OCC)c(OCC)c(OCC)c2)n1C [2-[[4-methyl-5-[[(3,4,5-triethoxybenzoyl)amino]methyl]-1,2,4-triazol-3-yl]thio]acetic acid ethyl ester] | 11.2 |  | 
7 | CCOc1cc(C(=O)NCc2nnc(SCC(=O)OC)n2C)cc(OCC)c1OCC [2-[[4-methyl-5-[[(3,4,5-triethoxybenzoyl)amino]methyl]-1,2,4-triazol-3-yl]thio]acetic acid methyl ester] |  | 18.5 | 
8 | CCOC(=O)c1c(NC(=O)C2C3CCC(O3)C2C(=O)O)sc(C)c1-c1ccc(C)cc1 (configuration not stated) [2-[[[3-ethoxycarbonyl-5-methyl-4-(4-methylphenyl)-2-thiophenyl]amino]-oxomethyl]-7-oxabicyclo[2.2.1]heptane-3-carboxylic acid] | > 66.7 |  | 
9 | O=C(NCc1cccnc1)C1c2ccccc2C(=O)N1C1CCCCCC1 (configuration not stated) [2-cycloheptyl-3-keto-N-(3-pyridylmethyl)isoindoline-1-carboxamide] | > 66.7 |  | 
10 | O=C(NCc1cccnc1)C1c2ccccc2C(=O)N1C1CCCCCCC1 (configuration not stated) [2-cyclooctyl-3-keto-N-(3-pyridylmethyl)isoindoline-1-carboxamide] | > 66.7 |  | 
11 | CCC(CC)C(=O)Nc1c2cnn(-c3ccccc3)c2nc(=O)n1-c1ccccc1 [2-ethyl-N-(6-keto-1,5-diphenyl-pyrazolo[3,4-d]pyrimidin-4-yl)butyramide] | > 66.7 |  | 
12 | CC(C)(C)CC(=O)Nc1ccc(Nc2ccccc2)cc1 [3,3-dimethyl-N-(4-phenylazanylphenyl)butanamide] | > 66.7 |  | 
13 | CCCCc1c(O)n(-c2ccccc2)n(-c2ccccc2)c1=O [3,5-Dioxo-1,2-diphenyl-4-n-butylpyrazolidine] | > 66.7 |  | > 40.3
14 | Cc1oc2cc(O)cc(O)c2c(=O)c1-c1ccc2c(c1)OCCCO2 [3-(3,4-dihydro-2H-1,5-benzodioxepin-7-yl)-2-methyl-5,7-bis(oxidanyl)chromen-4-one] | > 66.7 |  | 
15 | CCC(CCC(=O)Nc1cccc(C(=O)O)c1)C(=O)O (configuration not stated) [3-(4-carboxyhexanoylamino)benzoic acid] | > 66.7 |  | 
16 | Fc1ccc(-c2nnc3ccc(N4CCCC4)nn23)cc1 [3-(4-fluorophenyl)-6-(1-pyrrolidinyl)-[1,2,4]triazolo[4,3-b]pyridazine] | > 66.7 |  | 
17 | O=C(Cn1c(=O)oc2ccccc21)N1CCN(c2ccccc2)CC1 [3-[2-keto-2-(4-phenylpiperazino)ethyl]-1,3-benzoxazol-2-one] | > 66.7 |  | 
18 | Cc1nc2c(-c3ccc(F)cc3)c(C)nn2c(C)c1CCC(=O)NC(C)CCc1ccco1 (configuration not stated) [3-[3-(4-fluorophenyl)-2,5,7-trimethyl-6-pyrazolo[1,5-a]pyrimidinyl]-N-[4-(2-furanyl)butan-2-yl]propanamide] | > 66.7 |  | 
19 | CCOC(=O)CCn1nc(-c2ccc(Cl)cc2)cc1N [3-[5-amino-3-(4-chlorophenyl)-1-pyrazolyl]propanoic acid ethyl ester] | > 66.7 |  | 

Now from value to molecule:

Row | IC50 [µM] | IC50 (inactive by the depositor's call) [µM] | Ki [µM] | SMILES
20 | > 66.7 |  |  | CCc1cc2c(=O)c(-c3nc4ccccc4n3C)c(COCC(=O)O)oc2cc1OC(=O)C(C)(C)C [2-[[7-(2,2-dimethyl-1-oxopropoxy)-6-ethyl-3-(1-methyl-2-benzimidazolyl)-4-oxo-1-benzopyran-2-yl]methoxy]acetic acid]
21 | > 66.7 |  |  | CCOc1ccccc1Oc1c(C)oc2cc(OC(=O)c3ccco3)ccc2c1=O [2-furancarboxylic acid [3-(2-ethoxyphenoxy)-2-methyl-4-oxo-1-benzopyran-7-yl] ester]
22 | > 66.7 |  |  | COc1ccccc1Oc1c(C)oc2cc(OC(=O)c3ccco3)ccc2c1=O [2-furancarboxylic acid [3-(2-methoxyphenoxy)-2-methyl-4-oxo-1-benzopyran-7-yl] ester]
23 | > 66.7 |  | > 40.3 | COc1cccc(C2C(C(=O)c3cc4ccccc4o3)C(=O)C(=O)N2c2cc(C)on2)c1OC (configuration not stated) [3-(1-benzofuran-2-carbonyl)-2-(2,3-dimethoxyphenyl)-4-hydroxy-1-(5-methyl-1,2-oxazol-3-yl)-2H-pyrrol-5-one]
24 | > 66.7 |  | > 40.3 | COc1ccc(OC)c(C2C(C(=O)c3cc4ccccc4o3)C(=O)C(=O)N2c2cc(C)on2)c1 (configuration not stated) [3-(1-benzofuran-2-carbonyl)-2-(2,5-dimethoxyphenyl)-4-hydroxy-1-(5-methyl-1,2-oxazol-3-yl)-2H-pyrrol-5-one]
25 | > 66.7 |  | > 40.3 | O=C1C(=O)N(CCCN2CCOCC2)C(c2ccccn2)C1C(=O)c1cc2ccccc2o1 (configuration not stated) [3-(1-benzofuran-2-carbonyl)-4-hydroxy-1-(3-morpholin-4-ylpropyl)-2-pyridin-2-yl-2H-pyrrol-5-one]
26 | > 66.7 |  | > 40.3 | Cc1ccc(C2C(C(=O)c3sc(C)nc3C)C(=O)C(=O)N2CCN2CCOCC2)o1 (configuration not stated) [3-(2,4-dimethyl-1,3-thiazole-5-carbonyl)-4-hydroxy-2-(5-methylfuran-2-yl)-1-(2-morpholin-4-ylethyl)-2H-pyrrol-5-one]
27 | > 66.7 |  |  | Cc1csc(NC(=O)CCn2c(=O)oc3ccccc32)n1 [3-(2-keto-1,3-benzoxazol-3-yl)-N-(4-methylthiazol-2-yl)propionamide]
28 | > 66.7 |  |  | COc1ccc(-c2c(C)oc3c(CN4CCN(CCO)CC4)c(O)ccc3c2=O)cc1OC [3-(3,4-dimethoxyphenyl)-7-hydroxy-8-[[4-(2-hydroxyethyl)-1-piperazinyl]methyl]-2-methyl-1-benzopyran-4-one]
29 | > 66.7 |  |  | COc1ccc(-c2nc(-c3ccc(Br)o3)no2)cc1OC [3-(5-bromanylfuran-2-yl)-5-(3,4-dimethoxyphenyl)-1,2,4-oxadiazole]
30 | > 66.7 |  | > 40.3 | CCCOc1ccc(C2C(C(=O)c3ccc(C)o3)C(=O)C(=O)N2Cc2cccnc2)cc1 (configuration not stated) [3-(5-methylfuran-2-yl)carbonyl-4-oxidanyl-2-(4-propoxyphenyl)-1-(pyridin-3-ylmethyl)-2H-pyrrol-5-one]
31 | > 66.7 |  | > 40.3 | COCCN1C(=O)C(=O)C(C(=O)c2ccco2)C1c1cccc(Oc2ccccc2)c1 (configuration not stated) [3-(furan-2-carbonyl)-4-hydroxy-1-(2-methoxyethyl)-2-(3-phenoxyphenyl)-2H-pyrrol-5-one]
32 | > 66.7 |  | > 40.3 | C=CCOc1cccc(C2C(C(=O)c3ccco3)C(=O)C(=O)N2CCN2CCOCC2)c1 (configuration not stated) [3-(furan-2-carbonyl)-4-hydroxy-1-(2-morpholin-4-ylethyl)-2-(3-prop-2-enoxyphenyl)-2H-pyrrol-5-one]
33 | > 66.7 |  | > 40.3 | O=C1C(=O)N(CCc2ccccc2)C(c2cccnc2)C1C(=O)c1ccco1 (configuration not stated) [3-(furan-2-carbonyl)-4-hydroxy-1-(2-phenylethyl)-2-pyridin-3-yl-2H-pyrrol-5-one]
34 | > 66.7 |  | > 40.3 | CCCOc1ccc(C2C(C(=O)c3ccco3)C(=O)C(=O)N2CCCn2ccnc2)cc1 (configuration not stated) [3-(furan-2-carbonyl)-4-hydroxy-1-(3-imidazol-1-ylpropyl)-2-(4-propoxyphenyl)-2H-pyrrol-5-one]
35 | > 66.7 |  | > 40.3 | COCCCN1C(=O)C(=O)C(C(=O)c2ccco2)C1c1ccccc1 (configuration not stated) [3-(furan-2-carbonyl)-4-hydroxy-1-(3-methoxypropyl)-2-phenyl-2H-pyrrol-5-one]
36 | > 66.7 |  | > 40.3 | Cc1cc(N2C(=O)C(=O)C(C(=O)c3ccco3)C2c2cccnc2)no1 (configuration not stated) [3-(furan-2-carbonyl)-4-hydroxy-1-(5-methyl-1,2-oxazol-3-yl)-2-pyridin-3-yl-2H-pyrrol-5-one]
37 | > 66.7 |  | > 40.3 | O=C1C(=O)N(CC2CCCO2)C(c2cccnc2)C1C(=O)c1ccco1 (configuration not stated) [3-(furan-2-carbonyl)-4-hydroxy-1-(oxolan-2-ylmethyl)-2-pyridin-3-yl-2H-pyrrol-5-one]
38 | > 66.7 |  | > 40.3 | COCc1cc(C2C(C(=O)c3ccco3)C(=O)C(=O)N2CCOCCO)ccc1O (configuration not stated) [3-(furan-2-carbonyl)-4-hydroxy-1-[2-(2-hydroxyethoxy)ethyl]-2-[4-hydroxy-3-(methoxymethyl)phenyl]-2H-pyrrol-5-one]
39 | > 66.7 |  | > 40.3 | COc1cc(C2C(C(=O)c3ccco3)C(=O)C(=O)N2CCc2ccccc2)ccc1O (configuration not stated) [3-(furan-2-carbonyl)-4-hydroxy-2-(4-hydroxy-3-methoxyphenyl)-1-(2-phenylethyl)-2H-pyrrol-5-one]
40 | > 66.7 |  | > 40.3 | C=CCOc1ccc(C2C(C(=O)c3ccco3)C(=O)C(=O)N2Cc2cccnc2)cc1 (configuration not stated) [3-(furan-2-carbonyl)-4-hydroxy-2-(4-prop-2-enoxyphenyl)-1-(pyridin-3-ylmethyl)-2H-pyrrol-5-one]
41 | > 66.7 |  |  | Cc1ccccc1Nc1cc2ccccc2c(O)n1 [3-[(2-methylphenyl)amino]-2H-isoquinolin-1-one]
